Measured values published in patent US7947854B2, “Bis-cationic compounds and use thereof” (The University of Sydney, priority 2003, dated 2011).
≈ marks a conversion by molar mass, not a printed value. Read-outs that look alike come from different tables or passages of the source.

Columns and labels:
Format in all cases: cell-based
T. rubrum = assay: Susceptibility of dermatophytes, broth microdilution NCCLS M38-P; conditions: for MIC: Trichophyton rubrum
Description: (§1) Isolates were tested using the method described in the National Committee for Clinical Laboratory Standards (NCCLS) document M38-P for filamentous fungi, with dermatophyte specific modifications described by Fernández-Torres et al, Current topics in Medical Mycology, 14-19 Feb. 1999.
(§2) Five dermatophyte isolates were, namely; T. rubrum, T. mentagrophytes, T. tonsurans, M. canis and M. gypseum, all of which produce lipases and some, phospholipase. These isolates were tested by the broth microdilution method according to NCCLS document M38-P, for activity against selected antifungal agents. In addition, ten randomly selected isolates of T. tonsurans were also tested. All isolates were maintained on SDA at 28° C. Candida parapsilosis (ATCC 20019) was used as the reference control is organism.
(§3) The microdilution plates used were a single lot of RPMI 1640 basal medium (JRH bioScience Inc. Lenexa, Kans., USA) with L-glutamine and without sodium bicarbonate, buffered to pH 7.0, at 25° C., with 0.165 M (MOPS) morpholinepropanesulfonic acid (Sigma).
(§4) Powdered drugs were dissolved in 100% dimethyl sulfoxide (DMSO), at concentrations 100 times higher than the final test concentration. All compounds were prepared in 100% (DMSO). For ITRA and TRB, two-fold drug dilutions were prepared in 100% DMSO at 100 times the final concentration, followed by further dilution 1:50 in RPMI medium, to yield 2× the final strength required for the test.
(§5) Fungal cultures were subcultured onto Potato Dextrose Agar and grown at 28° C. for 7-10 days. Fungal suspensions were covered with 5 ml of distilled water, and then colonies were scraped off with cotton tipped swabs. The resulting mixture of conidia and hyphae elements was withdrawn, transferred to a sterile tube and then vortexed with glass beads. After the particles settled, the upper homogeneous suspension was collected and its density adjusted by a densitometer to a 0.5 McFarland standard at the wavelength of 530 nm (80-85% transmittance). These stock suspensions were then diluted 1:50 with RPMI medium to obtain final working inoculum concentration ranging from 0.3×10^4 to 9×10^4 CFU/ml. Inoculum quantification was performed by plating 100 μl of the 1:1000 dilution of the adjusted inoculum on SDA plates, incubated at 28° C., and after 7 days of incubation, the colonies were counted.
(§6) Testing was based on NCCLS M38-P document for testing filamentous moulds. Testing was carried out in sterile 96-well flat bottomed microtitre plate. Columns 1 and 3 to 12 were filled with 100 μl of RPMI medium, leaving column 2 unfilled. Columns 1, 2 and 3 were filled with 100 μl of 2× drug concentration. Serial dilutions were then made by transferring 100 μl from column 3 to each column up to column 11, and 100 μl from column 11 was discarded. Column 12 served as drug free growth control. Finally, 100 μl of inoculum suspension was added to all wells except column 1, which acted as sterility control (Columns 1 and 12 served as sterility and growth control respectively). Plates were incubated at 28° C. for 7 days, and read at 3 days and 7 days of incubation. All testing was performed in duplicate, on three separate occasions.
(§7) Growth in microtitre trays were read by visual inspection by using an illuminated-reversed mirror. Growth in each well was compared with the “growth control” drug free well. The MIC end point for all the drugs was chosen to be the first well with 100% growth inhibition (i.e. the lowest drug concentration inhibiting growth).

T. tonsurans = assay: as above; conditions: for MIC: Trichophyton tonsurans
Description: as §1, §2, §3, §4, §5, §6, §7

M. gypseum = assay: as above; conditions: for MIC: Nannizzia gypsea
Description: as §1, §2, §3, §4, §5, §6, §7

T. mentagrophytes = assay: as above; conditions: 100% growth inhibition, 28° C.; for MIC: Trichophyton mentagrophytes
Description: as §1, §2, §3, §4, §5, §6, §7

M. canis = assay: as above; conditions: for MIC: Microsporum canis
Description: as §1, §2, §3, §4, §5, §6, §7

[1] = tested on: ten randomly selected isolates of T. tonsurans; assay: Susceptibility of ten T. tonsurans isolates, broth microdilution NCCLS M38-P; conditions: for MIC: Trichophyton tonsurans
Description: as §1, §2, §3, §4, §5, §6, §7

[2] = tested on: Candida albicans ATCC 10231; assay: In vitro antifungal activity, yeasts, NCCLS M27-A; conditions: Table 9
Description: (§8) The assay used for yeasts (Candida; Cryptococcus) is that of the National Committee for Clinical Laboratory Standards. 1997. Reference Method for Broth Dilution Antifungal Susceptibility Testing of Yeasts: Approved Standard. NCCLS document M27-A.Villanova, Pa., USA as published in Ghannoum, M. A., A. S. Ibrahim, Y. Fu, M. C. Shafiq, J. E Edwards, Jr. and R. S. Criddle. 1992. Susceptibility testing of Cryptococcus neoformans: A microdilution technique. J. Clin. Microbiol. 30:2881-2886.

[3] = tested on: Cryptococcus neoformans ATCC 90112; assay: In vitro antifungal activity, yeasts, NCCLS M27-A; conditions: Table 9
Description: as §8

[4] = tested on: Scedosporium apiospermum 1-003-056; assay: In vitro antifungal activity, filamentous fungi, NCCLS M38-A
Description: (§9) The assay used for filamentous fungi (Aspergillus; Scedosporium; Fusarium) was that published by the National Committee for Clinical Laboratory Standards. 2002. Reference Method for Broth Dilution Antifungal Susceptibility Testing of Filamentous Fungi: Approved Standard. NCCLS document M38-A.Villanova, Pa., USA.

[5] = tested on: Aspergillus flavus ATCC 204 304; assay: as above
Description: as §9

[6] = tested on: Aspergillus fumigatus ATCC 204 305; assay: as above
Description: as §9

[7] = tested on: Scedosporium prolificans 1-003-040; assay: as above
Description: as §9

[8] = tested on: Aspergillus terreus ATCC 03-232-378; assay: as above
Description: as §9

[9] = tested on: Fusarium solani 04-132-4207; assay: as above
Description: as §9

[10] = tested on: Candida albicans ATCC 10231; assay: Antifungal susceptibility testing, microdilution MIC; conditions: Table 6; no visible growth after 48 h at 35° C.; read-out: MIC C. albicans ATCC 10231
Method in brief: (§10)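 Standard microdilution method, run in duplicate, using serial dilutions of cationic compounds.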

[11] = tested on: Cryptococcus neoformans ATCC 90112; assay: as above; conditions: Table 6; no visible growth after 72 h at 35° C.; read-out: MIC C. neof. ATCC 90112
Method in brief: as §10

CCC(C)n1ncn(-c2ccc(N3CCN(c4ccc(OCC5COC(Cn6cncn6)(c6ccc(Cl)cc6Cl)O5)cc4)CC3)cc2)c1=O (stereo not shown) [Itraconazole]
MIC Range, T. rubrum (T. rubrum; 100% growth inhibition, 28° C.): 0.03 to 1.0 µg/mL
MIC (T. rubrum; 100% growth inhibition, 28° C., read-out: MIC GM, T. rubrum): 0.171 µg/mL (≈ 0.242 µM)
MIC (T. rubrum; 100% growth inhibition, 28° C., read-out: MIC Mean, T. rubrum): 0.276 µg/mL (≈ 0.391 µM)
MIC (T. rubrum; Table 9, read-out: MIC T. rubrum): 0.3 µg/mL (≈ 0.425 µM)
MIC Range, T. tonsurans (T. tonsurans; 100% growth inhibition, 28° C.): 0.25 to 2.0 µg/mL
MIC (T. tonsurans; 100% growth inhibition, 28° C., read-out: MIC GM, T. tonsurans): 0.84 µg/mL (≈ 1.19 µM)
MIC (T. tonsurans; 100% growth inhibition, 28° C., read-out: MIC Mean, T. tonsurans): 1.06 µg/mL (≈ 1.5 µM)
MIC (T. tonsurans; Table 9, read-out: MIC T. tonsurans): 1.1 µg/mL (≈ 1.56 µM)
MIC Range, M. gypseum (M. gypseum; 100% growth inhibition, 28° C.): 0.25 to 2.0 µg/mL
MIC (M. gypseum; 100% growth inhibition, 28° C., read-out: MIC GM, M. gypseum): 0.74 µg/mL (≈ 1.05 µM)
MIC (M. gypseum; 100% growth inhibition, 28° C., read-out: MIC Mean, M. gypseum): 0.93 µg/mL (≈ 1.32 µM)
MIC (M. gypseum; Table 9, read-out: MIC M. gypseum): 0.9 µg/mL (≈ 1.28 µM)
MIC Range, T. mentagrophyte (T. mentagrophytes): 0.06 to 1.0 µg/mL
MIC (T. mentagrophytes; read-out: MIC GM, T. mentagrophyte): 0.26 µg/mL (≈ 0.368 µM)
MIC (T. mentagrophytes; read-out: MIC Mean, T. mentagrophyte): 0.355 µg/mL (≈ 0.503 µM)
MIC Range, M. canis (M. canis; 100% growth inhibition, 28° C.): 0.125 to 2.0 µg/mL
MIC (M. canis; 100% growth inhibition, 28° C., read-out: MIC GM, M. canis): 0.42 µg/mL (≈ 0.595 µM)
MIC (M. canis; 100% growth inhibition, 28° C., read-out: MIC Mean, M. canis): 0.63 µg/mL (≈ 0.893 µM)
MIC (M. canis; Table 9, read-out: MIC M. canis): 0.6 µg/mL (≈ 0.85 µM)
MIC Range ([1]; T. tonsurans 1): 0.03 to 0.125 µg/mL
MIC Range ([1]; T. tonsurans 2): 0.125 to 2.0 µg/mL
MIC Range ([1]; T. tonsurans 4): 0.5 µg/mL (≈ 0.709 µM)
MIC Range ([1]; T. tonsurans 5): 0.25 to 0.5 µg/mL
MIC Range ([1]; T. tonsurans 6): 0.25 to 2.0 µg/mL
MIC Range ([1]; T. tonsurans 7): 0.5 to 1.0 µg/mL
MIC Range ([1]; T. tonsurans 8): 0.25 to 2.0 µg/mL
MIC Range ([1]; T. tonsurans 9): 0.125 to 1.0 µg/mL
MIC Range ([1]; T. tonsurans 10): 0.25 to 1.0 µg/mL
MIC Range ([1]; T.tonsurans 3): 0.06 to 0.5 µg/mL
MIC ([1]; T. tonsurans 1, read-out: MIC GM): 0.12 µg/mL (≈ 0.17 µM)
MIC ([1]; T. tonsurans 2, read-out: MIC GM): 0.397 µg/mL (≈ 0.563 µM)
MIC ([1]; T. tonsurans 2, read-out: MIC Mean): 0.604 µg/mL (≈ 0.856 µM)
MIC ([1]; T. tonsurans 4, read-out: MIC GM): 0.5 µg/mL (≈ 0.709 µM)
MIC ([1]; T. tonsurans 4, read-out: MIC Mean): 0.5 µg/mL (≈ 0.709 µM)
MIC ([1]; T. tonsurans 5, read-out: MIC GM): 0.44 µg/mL (≈ 0.624 µM)
MIC ([1]; T. tonsurans 5, read-out: MIC Mean): 0.46 µg/mL (≈ 0.652 µM)
MIC ([1]; T. tonsurans 6, read-out: MIC GM): 0.71 µg/mL (≈ 1.01 µM)
MIC ([1]; T. tonsurans 6, read-out: MIC Mean): 0.96 µg/mL (≈ 1.36 µM)
MIC ([1]; T. tonsurans 7, read-out: MIC GM): 0.56 µg/mL (≈ 0.794 µM)
MIC ([1]; T. tonsurans 7, read-out: MIC Mean): 0.58 µg/mL (≈ 0.822 µM)
MIC ([1]; T. tonsurans 8, read-out: MIC GM): 0.79 µg/mL (≈ 1.12 µM)
MIC ([1]; T. tonsurans 8, read-out: MIC Mean): 1.08 µg/mL (≈ 1.53 µM)
MIC ([1]; T. tonsurans 9, read-out: MIC GM): 0.445 µg/mL (≈ 0.631 µM)
MIC ([1]; T. tonsurans 9, read-out: MIC Mean): 0.52 µg/mL (≈ 0.737 µM)
MIC ([1]; T. tonsurans 10, read-out: MIC GM): 0.445 µg/mL (≈ 0.631 µM)
MIC ([1]; T. tonsurans 10, read-out: MIC Mean): 0.5 µg/mL (≈ 0.709 µM)
MIC ([1]; T.tonsurans 3, read-out: MIC GM): 0.196 µg/mL (≈ 0.278 µM)
MIC ([1]; T.tonsurans 3, read-out: MIC Mean): 0.27 µg/mL (≈ 0.383 µM)
MIC ([1]; read-out: MIC Mean, T. tonsurans 1): 0.21 µg/mL (≈ 0.298 µM)

C[C@@H]1[C@H](O)[C@@H](C)/C=C/C=C/C=C/C=C/C=C/C=C/C=C/[C@H](O[C@@H]2O[C@H](C)[C@@H](O)[C@H](N)[C@@H]2O)C[C@@H]2O[C@](O)(C[C@@H](O)C[C@@H](O)[C@H](O)CC[C@@H](O)C[C@@H](O)CC(=O)O[C@H]1C)C[C@H](O)[C@H]2C(=O)O [Amphotericin B, reference compound]
MIC [2]: 0.54 µM (≈ 0.499 µg/mL)
MIC Candida albicans ATCC 10231 [2]: 0.50 µg/mL (≈ 0.541 µM)
MIC [3]: 0.54 µM (≈ 0.499 µg/mL)
MIC Cryptococcus neoformans ATCC 90112 [3]: 0.50 µg/mL (≈ 0.541 µM)
MIC [4]: 0.54 µM (≈ 0.499 µg/mL)
MIC Scedosporium apiospermum 1-003-056 [4]: 0.50 µg/mL (≈ 0.541 µM)
MIC [5]: 0.54 µM (≈ 0.499 µg/mL)
MIC Aspergillus flavus ATCC 204 304 [5]: 0.50 µg/mL (≈ 0.541 µM)
MIC [6]: 0.54 µM (≈ 0.499 µg/mL)
MIC Aspergillus fumigatus ATCC 204 305 [6]: 0.50 µg/mL (≈ 0.541 µM)
MIC [7]: 4.3 µM (≈ 3.97 µg/mL)
MIC Scedosporium prolificans 1-003-040 [7]: 4.0 µg/mL (≈ 4.33 µM)
MIC [8]: 1.1 µM (≈ 1.02 µg/mL)
MIC Aspergillus terreus ATCC 03-232-378 [8]: 1.0 µg/mL (≈ 1.08 µM)
MIC [9]: 0.27 µM (≈ 0.25 µg/mL)
MIC Fusarium solani 04-132-4207 [9]: 0.25 µg/mL (≈ 0.271 µM)
MIC [10]: 1.1 µM (≈ 1.02 µg/mL)
MIC [11]: 0.55 µM (≈ 0.508 µg/mL)
